Data: PubChem BioAssay AID248 (DTP/NCI, 2004)
Where “and” joins values, the source holds several entries; their conditions need not be identical. Identical values can stand only once. Inconclusive results and toxic doses are left out. Rule as the data show it: active = T/C of 150% or more; inactive = T/C below 125%.

Tested on: L1210 leukemia ip in BDF1 mice, survival T/C
Test: NCI In Vivo Anticancer Drug Screen. Data for tumor model L1210 Leukemia (intraperitoneal) in B6D2F1 (BDF1) mice
Conditions: endpoint: mean survival time, higher = longer survival
Summary of the method: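 Survival endpoint. Drug-treated group vs vehicle group, expressed as T divided by C. Tumor passaged by transplantation.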

[1] = dose: 100.0 mg/kg/injection, schedule: Q01DX001 (ip), vehicle: saline
[2] = dose: 200.0 mg/kg/injection, schedule: Q01DX001 (ip), vehicle: saline
[3] = dose: 150.0 mg/kg/injection, schedule: Q01DX009 (ip), vehicle: saline
[4] = dose: 100.0 mg/kg/injection, schedule: Q04DX003 (ip), vehicle: Klucel (hydroxypropylcellulose) (HPC)
[5] = dose: 200.0 mg/kg/injection, schedule: Q04DX003 (ip), vehicle: Klucel (hydroxypropylcellulose) (HPC)
[6] = dose: 400.0 mg/kg/injection, schedule: Q01DX001 (ip), vehicle: saline
[7] = dose: 400.0 mg/kg/injection, schedule: Q04DX003 (ip), vehicle: Klucel (hydroxypropylcellulose) (HPC)
[8] = dose: 50.0 mg/kg/injection, schedule: Q01DX009 (ip), vehicle: Klucel (hydroxypropylcellulose) (HPC)
[9] = dose: 100.0 mg/kg/injection, schedule: Q01DX009 (ip), vehicle: Klucel (hydroxypropylcellulose) (HPC)
[10] = dose: 100.0 mg/kg/injection, schedule: Q04DX003 (ip), vehicle: saline with Tween-80
[11] = dose: 200.0 mg/kg/injection, schedule: Q04DX003 (ip), vehicle: saline with Tween-80
[12] = dose: 100.0 mg/kg/injection, schedule: Q01DX009 (ip), vehicle: saline
[13] = dose: 100.0 mg/kg/injection, schedule: Q04DX003 (ip), vehicle: saline
[14] = dose: 200.0 mg/kg/injection, schedule: Q01DX009 (ip), vehicle: saline
[15] = dose: 200.0 mg/kg/injection, schedule: Q04DX003 (ip), vehicle: saline
[16] = dose: 400.0 mg/kg/injection, schedule: Q01DX009 (ip), vehicle: saline
[17] = dose: 200.0 mg/kg/injection, schedule: Q01DX009 (ip), vehicle: Klucel (hydroxypropylcellulose) (HPC)
[18] = dose: 400.0 mg/kg/injection, schedule: Q04DX003 (ip), vehicle: saline with Tween-80

Measured: T/C

CC[N+](C)(C)C(C)(C)C
inactive: dose: 18.75 mg/kg/injection, schedule: Q01DX001 (ip), vehicle: saline 112 % of control | dose: 37.5 mg/kg/injection, schedule: Q01DX001 (ip), vehicle: saline 105 % of control | dose: 75.0 mg/kg/injection, schedule: Q01DX001 (ip), vehicle: saline 105 % of control

CC(=O)OCCN1CCN(CC/C=C2\c3ccccc3Sc3ccc(Cl)cc32)CC1
inactive: dose: 2.0 mg/kg/injection, schedule: Q01DX009 (ip), vehicle: saline 100 % of control | dose: 5.0 mg/kg/injection, schedule: Q01DX009 (ip), vehicle: saline 98 % of control and 115 % of control | dose: 10.0 mg/kg/injection, schedule: Q01DX009 (ip), vehicle: saline 102 % of control | dose: 20.0 mg/kg/injection, schedule: Q01DX009 (ip), vehicle: saline 111 % of control | dose: 25.0 mg/kg/injection, schedule: Q04DX003 (ip), vehicle: saline 120 % of control | dose: 40.0 mg/kg/injection, schedule: Q01DX009 (ip), vehicle: saline 117 % of control | [1] 108 % of control | [2] 114 % of control

COC1=CCC(OC)=C(C)C1
inactive: [3] 95 % of control | dose: 225.0 mg/kg/injection, schedule: Q01DX009 (ip), vehicle: saline 94 % of control

CCCCCCCCCCC(=O)N1CCCCC1
inactive: dose: 100.0 mg/kg/injection, schedule: Q04DX002 (ip), vehicle: saline 100 % of control | dose: 200.0 mg/kg/injection, schedule: Q04DX002 (ip), vehicle: saline 96 % of control | dose: 400.0 mg/kg/injection, schedule: Q04DX002 (ip), vehicle: saline 96 % of control

CN=C(NC)SC
inactive: [1] 103 % of control | [4] 100 % of control | [2] 97 % of control | [5] 93 % of control | [6] 96 % of control | [7] 100 % of control

O=C(O)c1ccc(OC(F)(F)C(F)Cl)cc1 (stereo not drawn)
inactive: [8] 100 % of control | [9] 98 % of control

COC(=O)c1ccccc1C(=O)O
inactive: [10] 101 % of control | [11] 93 % of control

COC(=O)c1csc(-c2csc(CCN)n2)n1
inactive: [1] 102 % of control | [12] 100 % of control | [13] 95 % of control | [2] 98 % of control | [14] 98 % of control | [15] 98 % of control | [6] 101 % of control | [16] 89 % of control | dose: 400.0 mg/kg/injection, schedule: Q04DX003 (ip), vehicle: saline 103 % of control

COc1cc(C(=O)CCC(=O)O)c(OC)c(CBr)c1CBr
inactive: dose: 5.0 mg/kg/injection, schedule: Q01DX001 (ip), vehicle: other 101 % of control | dose: 10.0 mg/kg/injection, schedule: Q01DX001 (ip), vehicle: other 110 % of control | dose: 20.0 mg/kg/injection, schedule: Q01DX001 (ip), vehicle: other 101 % of control

O=C(Nc1ccccc1F)c1ccco1
inactive: [9] 100 % of control | [17] 103 % of control

CN(O)CC(=O)O
inactive: [1] 95 % of control | [2] 98 % of control | [6] 97 % of control

CCOC(=O)C(C)C1(O)CCCCC1 (stereo not drawn)
inactive: [12] 98 % of control | [14] 95 % of control | [16] 98 % of control

CCOC(=O)CC(C(C)=O)P(=O)(OCC)OCC (stereo not drawn)
inactive: dose: 50.0 mg/kg/injection, schedule: Q01DX009 (ip), vehicle: saline + alcohol 96 % of control | dose: 100.0 mg/kg/injection, schedule: Q01DX009 (ip), vehicle: saline + alcohol 96 % of control | dose: 200.0 mg/kg/injection, schedule: Q01DX009 (ip), vehicle: saline + alcohol 92 % of control

CC(C)(CS(C)(=O)=O)C(=O)OCC(=O)c1ccccc1
inactive: [4] 108 % of control | [5] 105 % of control | [7] 105 % of control

CNC(=O)c1cccc2c1-c1ccccc1C2=O
inactive: dose: 100.0 mg/kg/injection, schedule: Q01DX001 (ip), vehicle: other 91 % of control | dose: 200.0 mg/kg/injection, schedule: Q01DX001 (ip), vehicle: other 91 % of control | dose: 400.0 mg/kg/injection, schedule: Q01DX001 (ip), vehicle: other 91 % of control

COC(=O)CNC(=O)CCNC(=O)OCc1ccccc1
inactive: [10] 98 % of control | [11] 97 % of control | [18] 98 % of control

CC12CCC(=O)OC1(C)OC(=O)CC2 (stereo not drawn)
inactive: [12] 94 % of control | [14] 100 % of control | [16] 95 % of control

Cc1c(C(=O)O)nnn1/C=C/c1ccccc1
inactive: dose: 100.0 mg/kg/injection, schedule: Q04DX003 (ip), vehicle: acetone 103 % of control | dose: 200.0 mg/kg/injection, schedule: Q04DX003 (ip), vehicle: acetone 87 % of control

CC1=CC(C)(C)Nc2ccc(Cc3ccc4c(c3)C(C)=CC(C)(C)N4)cc21
inactive: dose: 100.0 mg/kg/injection, schedule: Q01DX009 (ip), vehicle: saline with Tween-80 86 % of control | dose: 200.0 mg/kg/injection, schedule: Q01DX009 (ip), vehicle: saline with Tween-80 100 % of control | dose: 400.0 mg/kg/injection, schedule: Q01DX009 (ip), vehicle: saline with Tween-80 92 % of control

COc1cc(C)c(Cl)c(C)c1C#CC(=O)O
inactive: dose: 75.0 mg/kg/injection, schedule: Q01DX009 (ip), vehicle: Klucel (hydroxypropylcellulose) (HPC) 101 % of control | dose: 150.0 mg/kg/injection, schedule: Q01DX009 (ip), vehicle: Klucel (hydroxypropylcellulose) (HPC) 100 % of control

CCOC(=O)c1c(NC(=O)CCC(=O)Nc2sc(C)c(C)c2C(=O)OCC)sc(C)c1C
inactive: dose: 50.0 mg/kg/injection, schedule: Q04DX003 (ip), vehicle: saline with Tween-80 88 % of control | [9] 90 % of control | [10] 98 % of control | [11] 90 % of control | dose: 400.0 mg/kg/injection, schedule: Q01DX009 (ip), vehicle: Klucel (hydroxypropylcellulose) (HPC) 88 % of control | [18] 88 % of control

[O-][n+]1c2ccccc2c(Cl)c2ccc3ccccc3c21
inactive: dose: 100.0 mg/kg/injection, schedule: Q04DX002 (ip), vehicle: saline with Tween-80 93 % of control | dose: 200.0 mg/kg/injection, schedule: Q04DX002 (ip), vehicle: saline with Tween-80 90 % of control | dose: 400.0 mg/kg/injection, schedule: Q04DX002 (ip), vehicle: saline with Tween-80 90 % of control

Cc1ccc(P(=O)(O)O)cc1C
inactive: dose: 37.5 mg/kg/injection, schedule: Q01DX009 (ip), vehicle: saline 101 % of control | [8] 101 % of control | dose: 75.0 mg/kg/injection, schedule: Q01DX009 (ip), vehicle: saline 89 % of control | [9] 95 % of control | [13] 100 % of control | [3] 87 % of control | [17] 101 % of control | [15] 88 % of control

CSc1ccccc1NC(=O)c1cccc([N+](=O)[O-])c1
inactive: dose: 100.0 mg/kg/injection, schedule: Q04DX002 (ip), vehicle: Klucel (hydroxypropylcellulose) (HPC) 105 % of control | dose: 200.0 mg/kg/injection, schedule: Q04DX002 (ip), vehicle: Klucel (hydroxypropylcellulose) (HPC) 99 % of control | dose: 400.0 mg/kg/injection, schedule: Q04DX002 (ip), vehicle: Klucel (hydroxypropylcellulose) (HPC) 86 % of control
